In patent US20070099822A1, “Regulation of tissue mineralization and phosphate metabolism by asarm peptides” (priority 2003, published 2007):
Like-named read-outs stand apart in the source and are kept apart here. Ends that are not written are not given here.

Legend:
Male ICR-Swiss mice = assay: Intraperitoneal administration of Hu-MEPE and PTH (1-34) into mice, serum and urine assays; assay type: in vivo
Experimental: Intraperitoneal administration of Hu-MEPE and PTH (1-34) into mice. Male ICR-Swiss mice were used as recipients for intraperitoneal administration (100 μl) of 0.1% phosphate-buffered saline/0.1% bovine serum albumin (vehicle) and experimental conditions (Hu-MEPE and PTH 1-34) dissolved in 100 μL of vehicle. Two separate (repeat) experiments were conducted consisting of four groups with 6 and 7 animals per group. The control group was administered with 100 μL of vehicle (Group-1). Group-2 consisted of animals administered with 0.8 μg/injection of parathyroid hormone (PTH 1-34). Group 3 were injected with 0.4 μg/injection of Hu-MEPE and Group-4 with 4 μg/injection of Hu-MEPE. On day one, three bolus injections were given at 0, 3 h, and 6 h. Serum samples were then collected via retro-orbital bleed one hour after the 6 h bolus administration. The next day or 30 hours after the first bolus a fourth bolus (same amount) was given and after 1 h the animals were sacrificed and serum prepared after cardiac exsanguination. The total amounts of PTH and MEPE administered over the 30 h were 80 μg/kg/30 h PTH 1-34, 40 μg/kg/30 h Hu-MEPE (MEPE-40) and 400 μg/kg/30 h Hu-MEPE (MEPE-400). Each group was placed in a separate metabolic cage and urine was collected for the 6-hour period. After the first 6-hour urine collection mice were replaced in thoroughly cleaned metabolic cages for the remaining 24 hours. The second 24-hour urine was collected immediately after the animals were sacrificed. The urine volumes for the second and first collections were measured. Collecting urine samples from large numbers of small mice over the time frame of the experiment was not feasible. Therefore, urine samples from each group (n=7) were pooled and volumes measured via a specially designed collecting duct in the metabolic cage. To ensure reproducibility the experiment was repeated twice (the same changes occurred). To calculate the fractional excretion of phosphate (FEP) the following equation was used: 100−(100×(1−(A/B))) where A=(urine phosphorus in mg/dL)×(serum creatinine in mg/dL) and B=(urine creatinine in mg/dL)×(serum phosphorus in mg/dL). To calculate renal phosphorus clearance (RPC) in mL/minute following computation was used: (urine phosphorus in mg/dL)×(urinary volume in mL)/((serum phosphorus in mg/dL)×(time of collection in minutes)). The phosphate excretion index (PEI) was calculated using the same method described by Shimada et al. (Cloning and characterization of FGF23 as a causative factor of tumor-induced osteomalacia, Proc Natl Acad Sci USA 98:6500-6505, 2001) using the following formula: ((urinary concentration of phosphorus in mg/dL)/(serum concentration of phosphorus in mg/dL))/(total urinary creatinine in mg).
Serum and urine assays. Serum and urine assays for phosphate, calcium, chloride, potassium, creatinine, glucose and alkaline phosphatase were accomplished using 96 well format KC4-spectrophotometer multiplate kinetic/end-point analyses using routine methods and diagnostic-kits Sigma-Diagnostics). Serum 1,25-dihydroxy vitamin-D3 levels were estimated using the method of Reinhardt, et al. (A microassay for 1,25-dihydroxyvitamin D not requiring high performance liquid chromatography: application to clinical studies, J Clin Endocrinol Metab 58:91-98, 1984). Analysis of data for fractional excretion of phosphate (FEP) was carried out following the same method described previously by Shimada et al. (Mutant FGF-23 responsible for autosomal dominant hypophosphatemic rickets is resistant to proteolytic cleavage and causes hypophosphatemia in vivo, Endocrinology 143:3179-82, 2002) for FGF23 bolus administration studies and by Nesbitt et al. (Crosstransplantation of kidneys in normal and Hyp mice: Evidence that the Hyp mouse phenotype is unrelated to an intrinsic renal defect, J Clin Invest 89:1453-59, 1992) for renal cross-transplantation experiments in Hyp mice.
Statistical methods. […]

[1] = test system: Na+ dependent phosphate co-transport in primary human renal proximal tubule epithelial cells (RPTEC); assay: 33PO4 uptake scintillation proximity assay (SPA) in RPTEC; assay type: cell-based
Experimental: (§1) Measurement of ^33PO4 uptake and ^14C-α-methyl D-glucose uptake. A novel technique, scintillation proximity assay (SPA), was used to measure ^33PO4 uptake in-vitro. Human renal proximal-tubule primary cells (RPTEC) were purchased from Clonetics-Biowhittaker (Walkersville, Md.) (cat. no. CC2553) and were cultured and subcultured using the manufacturers recommended protocols, methods, buffers and media (cat. nos. CC3190, CC5034). Also a human renal cell-line (Hu-CL8) was cultured as previously described (Rowe et al. Candidate 56 and 58 kDa protein(s) responsible for mediating the renal defects in oncogenic hypophosphatemic osteomalacia. Bone 18(2):159-169, 1996). For ^33PO4-uptake measurement cells were grown in REBM media supplemented with 5% fetal calf serum (REBM-FCS) to 80% confluence (Clonetics-Biowhitaker, Walkersville, Md.: cat. nos. CC2553, CC3190 and CC5034) and seeded into 96 well (3000 cells/well) cytostar-T scintillating-microplates (Amersham-Pharmacia Biotech, Piscataway, N.J.: cat. no. RPNQ 0162). Cells were then cultured in 200 μL of REBM-FCS media for 24 h. Media was then replaced with serum free media (REBM) and the cells incubated for a further 3-4 h with Hu-MEPE, PTH (1-34) or media control respectively in REBM media. The concentrations of PTH (1-34) and Hu-MEPE were […] and each experimental dose was repeated eight times for statistical analysis. Following incubation media was removed and replaced with either phosphate uptake buffer (PUB) consisting of 150 mM NaCl/1 mM Cacl2/1.8 mM MgSO4/10 mM HEPE pH 7.0/0.1 mM phosphate buffer pH 7.0 and 3 uCi mL^−1 33P as orthophosphoric acid (18 MBq/mL or 5775.7 Gbq/mg stock solution Perkin Elmer, Wellesley, Mass.: cat. no. NEZ080). In order to determine the Na-dependent phosphate co-transporter activity a separate set of control cells were incubated with the same buffer but with choline chloride (150 mM) substituted for NaCl (CHUB buffer). After 10 min at 37° C. the reaction was terminated by removing the PUB and CHUB buffers and replacing with STOP buffer (CHUB buffer without radioisotope). The cytostar scintillation plates were then directly assayed for counts (CPM) using a Hewlett-Packard (Palo Alto, Calif.) Multiplate Top-counter calibrated for ^33P SPA assay. Due to the unique design of the 96 well cytostar-plate radioactive decay in solution is not detected by the counter. In contrast, radioisotope attached to or taken into the cells initiates release of plastic-scintillant photons that are detected by the top-counter photo-multiplier tube. Thus, no washes are required and direct CPM can be counted in living cells. Following CPM determination the buffers were removed from the living cells and fresh media supplemented with cell-titre-96 (Promega-Biotech, Madison, Wis.: cat. no. G5421) cell-number detection media. Cells were then further incubated at 37° C. for 4 h. Conversion of a tetrazolium salt to a colored formazan product by living cells was then measured at 490 nm using a 96 well multi-well spectrophotometer with KC-4 software (absorbance at 490 nm is directly proportional to the number of living cells). Na-dependent ^33P uptake was then calculated by subtracting background counts and the choline chloride non Na-dependent ^33P uptake and results expressed as ^33PO4 femtomoles/10^4-cells/6 min. […]

[2] = test system: Na+ dependent phosphate co-transport in human renal proximal tubule cell-line (Hu-CL8); assay: 33PO4 uptake scintillation proximity assay (SPA) in Hu-CL8; assay type: cell-based; conditions: Hu-CL8
Experimental: as §1, with “After 10 min at 37° C. the reaction was terminated by removing the PUB and CHUB buffers and replacing with STOP buffer (CHUB buffer without radioisotope). The cytostar scintillation plates were then directly assayed for counts (CPM) using a Hewlett-Packard (Palo Alto, Calif.) Multiplate Top-counter calibrated for ^33P SPA assay.” left out, “Following CPM determination the buffers were removed from the living cells and fresh media supplemented with cell-titre-96 (Promega-Biotech, Madison, Wis.: cat. no. G5421) cell-number detection media. Cells were then further incubated at 37° C. for 4 h.” left out

[3] = target: rabbit polyclonal antibodies raised against ASARM-peptide (SEQ ID NO. 5); assay: competitive chemiluminescent ELISA: anti-ASARM polyclonal on protein-G plates, 0.5 ng/mL biotinylated ASARM-peptide as competitor, one site binding hyperbola of % quenching
[4] = target: rabbit polyclonal antibodies raised against ASARM-peptide (SEQ ID NO. 5); assay: competitive chemiluminescent ELISA: anti-ASARM polyclonal on protein-G plates, 0.5 ng/mL biotinylated ASARM-peptide as competitor

| Molecule | fractional excretion of phosphate (FEP) (Male ICR-Swiss mice; 7 h, PTH 80 ug/kg/30 h, vehicle 7.8%) | urine phosphate (Male ICR-Swiss mice; 7 h, PTH 80 ug/kg/30 h i.p., vehicle 31.8) | fractional excretion of phosphate (FEP) (Male ICR-Swiss mice; 31 h, PTH 80 ug/kg/30 h, vehicle 28.7%) | serum alkaline phosphatase (Male ICR-Swiss mice; 31 h, PTH 80 ug/kg/30 h, vehicle 65.06) | serum 1,25-dihydroxy vitamin-D3 (Male ICR-Swiss mice; 31 h, PTH 1-34 80 ug/kg/30 h, pooled, vehicle 25.2) | serum phosphate (Male ICR-Swiss mice; 31 hours, PTH 80 ug/kg/30 h i.p., vehicle 11.94) | urine phosphate (Male ICR-Swiss mice; 31 h second urine, PTH 80 ug/kg/30 h, vehicle 175.9) | serum phosphate vs vehicle (Male ICR-Swiss mice; after 7 hours, i.p., PTH and MEPE animals) | serum calcium vs vehicle (Male ICR-Swiss mice; after 7 hours, PTH 80 ug/kg/30 h, low Hu-MEPE dose) | urine calcium vs Hu-MEPE and vehicle (Male ICR-Swiss mice; after 31 hours, PTH) | inhibition of Na+ dependent phosphate co-transport [1] | inhibition of Na+ dependent phosphate co-transport ([1]; listed as PTH) | inhibition of Na+ dependent phosphate co-transport [2] | Kd [3] | Qmax (quench maximum) [4] |
| --- | --- | --- | --- | --- | --- | --- | --- | --- | --- | --- | --- | --- | --- | --- | --- |
| PTH (1-34): parathyroid hormone (PTH 1-34), used as a positive control (SVSEIQLMHNLGKHLNSMERVEWLRKKLQDVHNF; Parathyroid hormone; UniProt P01270 32-65, looked up, fragment) [reference compound] | 27.4% | 61.6 mg/dL | 53.3% | 46.3 U/L | 61.2 pg/mL | 8.32 mg/dL | 238.3 mg/dL | no significant differences | significantly elevated | significantly hypocalciuric | Dose dependent inhibition | dose-dependent inhibition | Dose dependent inhibition |  |  |
| RDDSSESSDSGSSSESDGD (not fully specified) |  |  |  |  |  |  |  |  |  |  |  |  |  | 7.5 ng/mL | 98.7% |
